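Following 48 hours of exposure in 96-well plates, responses at five concentrations were used to interpolate endpoints linearly. GI50 is the concentration that inhibits growth by half.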 The source made the active and inactive calls. Cut-off read from the data, not from the text of the source: active = GI50 up to about 1.1 µM and inactive = higher.
Experiments:
Test in all cases: NCI anticancer screen, dose series, 48 h
[1] = system: 786-0
[2] = system: A549
[3] = system: ACHN
[4] = system: BT-549
[5] = system: CAKI-1
[6] = system: CCRF-CEM
[7] = system: COLO 205
[8] = system: DU-145
[9] = system: EKVX
[10] = system: HCC 2998
[11] = system: HCT-116
[12] = system: HCT-15
[13] = system: HL-60
[14] = system: HOP-62
[15] = system: HT-29
[16] = system: Hs-578T
[17] = system: IGROV-1
[18] = system: KM12
[19] = system: LOX IMVI
[20] = system: M14
[21] = system: MCF7
[22] = system: MDA-MB-231
[23] = system: MDA-MB-435
[24] = system: MDA-N
[25] = system: MOLT-4
[26] = system: Malme-3M
[27] = system: NCI-H226
[28] = system: NCI-H23
[29] = system: NCI-H460
[30] = system: NCI-H522
[31] = system: NCI/ADR-RES
[32] = system: OVCAR-3
[33] = system: OVCAR-4
[34] = system: OVCAR-5
[35] = system: OVCAR-8
[36] = system: PC-3
[37] = system: RPMI-8226
[38] = system: SF-268
[39] = system: SF-295
[40] = system: SF-539
[41] = system: SK-MEL-28
[42] = system: SK-MEL-2
[43] = system: SK-MEL-5
[44] = system: SK-OV-3
[45] = system: SN12C
[46] = system: SNB-19
[47] = system: SNB-75
[48] = system: SW-620
[49] = system: T47D
[50] = system: TK-10
[51] = system: U-251
[52] = system: UACC-257
[53] = system: UACC-62
[54] = system: UO-31
[55] = system: A498
[56] = system: HOP-92
[57] = system: K562
[58] = system: RXF 393
[59] = system: SR

Compound: Cc1cnc2c(c1)C(=O)N(c1ccc(Br)cc1)S2(=O)=O
- GI50 [1]: > 100 µM (inactive)
- GI50 [2]: > 100 µM (inactive)
- GI50 [3]: > 100 µM (inactive)
- GI50 [4]: > 100 µM (inactive)
- GI50 [5]: > 100 µM (inactive)
- GI50 [6]: > 100 µM (inactive)
- GI50 [7]: > 100 µM (inactive)
- GI50 [8]: > 100 µM (inactive)
- GI50 [9]: 35.6 µM (inactive)
- GI50 [10]: > 100 µM (inactive)
- GI50 [11]: > 100 µM (inactive)
- GI50 [12]: > 100 µM
- GI50 [13]: 30.1 µM (inactive)
- GI50 [14]: 50.5 µM (inactive)
- GI50 [15]: > 100 µM (inactive)
- GI50 [16]: 24.5 µM (inactive)
- GI50 [17]: 56.1 µM (inactive)
- GI50 [18]: > 100 µM (inactive)
- GI50 [19]: > 100 µM (inactive)
- GI50 [20]: > 100 µM (inactive)
- GI50 [21]: > 100 µM (inactive)
- GI50 [22]: > 100 µM (inactive)
- GI50 [23]: > 100 µM (inactive)
- GI50 [24]: > 100 µM (inactive)
- GI50 [25]: > 100 µM (inactive)
- GI50 [26]: 35.6 µM (inactive)
- GI50 [27]: 78 µM (inactive)
- GI50 [28]: > 100 µM (inactive)
- GI50 [29]: > 100 µM (inactive)
- GI50 [30]: 19.5 µM (inactive)
- GI50 [31]: > 100 µM (inactive)
- GI50 [32]: > 100 µM (inactive)
- GI50 [33]: 44.4 µM (inactive)
- GI50 [34]: > 100 µM (inactive)
- GI50 [35]: > 100 µM (inactive)
- GI50 [36]: > 100 µM (inactive)
- GI50 [37]: > 100 µM (inactive)
- GI50 [38]: 78.5 µM (inactive)
- GI50 [39]: > 100 µM (inactive)
- GI50 [40]: > 100 µM (inactive)
- GI50 [41]: > 100 µM (inactive)
- GI50 [42]: > 100 µM (inactive)
- GI50 [43]: > 100 µM (inactive)
- GI50 [44]: > 100 µM (inactive)
- GI50 [45]: > 100 µM (inactive)
- GI50 [46]: > 100 µM (inactive)
- GI50 [47]: 37.3 µM (inactive)
- GI50 [48]: > 100 µM (inactive)
- GI50 [49]: > 100 µM (inactive)
- GI50 [50]: > 100 µM (inactive)
- GI50 [51]: > 100 µM (inactive)
- GI50 [52]: > 100 µM (inactive)
- GI50 [53]: > 100 µM (inactive)
- GI50 [54]: > 100 µM (inactive)

Compound: CCN(CC)C(=S)SS(=O)(=O)c1ccccc1[N+](=O)[O-]
- GI50 [1]: 18.6 µM (inactive)
- GI50 [55]: > 56.6 µM (inactive)
- GI50 [2]: 14.7 µM (inactive)
- GI50 [3]: 43.8 µM (inactive)
- GI50 [4]: > 51.2 µM (inactive)
- GI50 [5]: 22.3 µM (inactive)
- GI50 [6]: 2.51 µM (inactive)
- GI50 [7]: > 53.5 µM (inactive)
- GI50 [8]: 27.3 µM (inactive)
- GI50 [9]: > 100 µM (inactive)
- GI50 [10]: > 49.2 µM (inactive)
- GI50 [11]: 18.2 µM (inactive)
- GI50 [12]: 57.9 µM
- GI50 [13]: 2.47 µM (inactive)
- GI50 [14]: 22 µM (inactive)
- GI50 [56]: 24 µM (inactive)
- GI50 [15]: 16.9 µM (inactive)
- GI50 [16]: 31.1 µM (inactive)
- GI50 [17]: 0.504 µM (active)
- GI50 [57]: 11.7 µM (inactive)
- GI50 [18]: > 35.4 µM (inactive)
- GI50 [19]: 17.3 µM (inactive)
- GI50 [20]: 25 µM (inactive)
- GI50 [22]: 18.1 µM (inactive)
- GI50 [23]: 21.7 µM (inactive)
- GI50 [24]: 38.9 µM (inactive)
- GI50 [25]: 0.415 µM (active)
- GI50 [26]: 10.2 µM (inactive)
- GI50 [27]: > 60 µM (inactive)
- GI50 [28]: > 54 µM (inactive)
- GI50 [29]: 25.1 µM (inactive)
- GI50 [30]: 0.404 µM (active)
- GI50 [31]: 41.3 µM (inactive)
- GI50 [32]: 22.2 µM (inactive)
- GI50 [33]: 44.3 µM (inactive)
- GI50 [34]: > 50.4 µM (inactive)
- GI50 [35]: 22.9 µM (inactive)
- GI50 [36]: 54.5 µM (inactive)
- GI50 [37]: 15.2 µM (inactive)
- GI50 [58]: 20.8 µM (inactive)
- GI50 [38]: 30.7 µM (inactive)
- GI50 [39]: 31.8 µM (inactive)
- GI50 [40]: 19.9 µM (inactive)
- GI50 [41]: 18.7 µM (inactive)
- GI50 [42]: > 76.7 µM (inactive)
- GI50 [43]: 5.83 µM (inactive)
- GI50 [44]: > 71.4 µM (inactive)
- GI50 [45]: 22 µM (inactive)
- GI50 [46]: > 53.7 µM (inactive)
- GI50 [47]: 76.2 µM (inactive)
- GI50 [59]: 0.359 µM (active)
- GI50 [48]: 20.9 µM (inactive)
- GI50 [49]: 28.1 µM (inactive)
- GI50 [50]: 31.9 µM (inactive)
- GI50 [51]: 21.7 µM (inactive)
- GI50 [52]: 36.8 µM (inactive)
- GI50 [53]: 35 µM (inactive)
- GI50 [54]: 14.5 µM (inactive)

From ChEMBL document CHEMBL1201862, “PubChem BioAssay data set” (2004)
